# Key:
# Assay type in all cases: in vivo
# [1] = test system: giant foxtail (Setaria faberii); assay: Test C postemergence; conditions: Setaria faberi, post-emergence, 336 h, Postemergence, scale 0 to 100, read-out: Plant response rating, Foxtail, Giant
# [2] = test system: large (Lg) crabgrass (Digitaria sanguinalis); assay: Test C postemergence; conditions: Digitaria sanguinalis, post-emergence, 336 h, Postemergence, scale 0 to 100, read-out: Plant response rating, Crabgrass, Large
# [3] = test system: winter wheat (Triticum aestivum); assay: Test C postemergence; conditions: Triticum aestivum, post-emergence, 336 h, Postemergence, scale 0 to 100, read-out: Plant response rating, Wheat
# [4] = test system: velvetleaf (Abutilon theophrasti); assay: Test C postemergence; conditions: Abutilon theophrasti, post-emergence, Postemergence, scale 0 to 100, read-out: Plant response rating, Velvetleaf
# [5] = test system: oilseed rape (Brassica napus); assay: Test C postemergence; conditions: Brassica napus, post-emergence, Postemergence, scale 0 to 100, read-out: Plant response rating, Oilseed Rape
# [6] = test system: lambsquarters (Chenopodium album); assay: Test C postemergence; conditions: Chenopodium album, post-emergence, 336 h, Postemergence, scale 0 to 100, read-out: Plant response rating, Lambsquarters
# [7] = test system: morningglory (Ipomoea coccinea); assay: Test C postemergence; conditions: Ipomoea, post-emergence, 336 h, Postemergence, scale 0 to 100, read-out: Plant response rating, Morningglory
# [8] = test system: ragweed (common ragweed, Ambrosia elatior); assay: Test C postemergence; conditions: Ambrosia artemisiifolia, post-emergence, 336 h, Postemergence, scale 0 to 100, read-out: Plant response rating, Ragweed
# [9] = test system: Italian ryegrass (Lolium multiflorum); assay: Test C postemergence; conditions: Lolium multiflorum, post-emergence, 336 h, Postemergence, scale 0 to 100, read-out: Plant response rating, Ryegrass, Italian
# wild oat (Avena fatua) = assay: Test C postemergence; conditions: Avena fatua, post-emergence, Postemergence, scale 0 to 100, read-out: Plant response rating, Oat, Wild
# [10] = test system: chickweed (common chickweed, Stellaria media); assay: Test C postemergence; conditions: Stellaria media, post-emergence, Postemergence, scale 0 to 100, read-out: Plant response rating, Chickweed
# [11] = test system: blackgrass (Alopecurus myosuroides); assay: Test C postemergence; conditions: Alopecurus myosuroides, post-emergence, 336 h, Postemergence, scale 0 to 100, read-out: Plant response rating, Blackgrass
# [12] = test system: barnyardgrass (Echinochloa crus-galli); assay: Test C postemergence; conditions: Echinochloa crus-galli, post-emergence, Postemergence, scale 0 to 100, read-out: Plant response rating, Barnyardgrass
# corn (Zea mays) = assay: Test C postemergence; conditions: Zea mays, post-emergence, 336 h, Postemergence, scale 0 to 100
# [13] = test system: johnsongrass (Sorghum halepense); assay: Test C postemergence; conditions: Sorghum halepense, post-emergence, 336 h, Postemergence, scale 0 to 100, read-out: Plant response rating, Johnsongrass
# soybean (Glycine max) = assay: Test C postemergence; conditions: Glycine max, post-emergence, Postemergence, scale 0 to 100, read-out: Plant response rating, Soybean
# [14] = test system: yellow nutsedge (Cyperus esculentus); assay: Test C postemergence; conditions: Cyperus, post-emergence, 336 h, Postemergence, scale 0 to 100, read-out: Plant response rating, Nutsedge, Yellow
# kochia (Kochia scoparia) = assay: Test C postemergence; conditions: Bassia scoparia, post-emergence, Postemergence, scale 0 to 100, read-out: Plant response rating, Kochia
# [15] = test system: galium (catchweed bedstraw, Galium aparine); assay: Test C postemergence; conditions: Galium, post-emergence, 336 h, Postemergence, scale 0 to 100, read-out: Plant response rating, Galium
# [16] = test system: oilseed rape (Brassica napus); assay: Test C preemergence; conditions: Brassica napus, pre-emergence, preemergence, scale 0 to 100, read-out: Plant response rating, Oilseed Rape
# How it was run: (§1)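 Steps: plant seeds in loam-sand soil and treat preemergence, or grow plants in peat-based medium to 2-18 cm and spray; compound formulated in non-phytotoxic solvent/surfactant; hold in greenhouse 13-15 days; score visually versus controls from 0 (no effect) to 100 (complete control).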
# [17] = test system: blackgrass (Alopecurus myosuroides); assay: Test C preemergence; conditions: Alopecurus myosuroides, pre-emergence, 336 h, preemergence, scale 0 to 100, read-out: Plant response rating, Blackgrass
# How it was run: as §1
# [18] = test system: yellow nutsedge (Cyperus esculentus); assay: Test C preemergence; conditions: Cyperus, pre-emergence, 336 h, preemergence, scale 0 to 100, read-out: Plant response rating, Nutsedge, Yellow
# How it was run: as §1
smiles,measurement,setting,value
"Fc1cnc(Oc2c(Cl)cccc2Oc2ncc(Cl)cn2)nc1 [Compound 18, 5-chloro-2-[5-chloro-6-[(5-fluoro-2-pyrimidinyl)oxy]phenoxy]pyrimidine]",pest or weed control at 31 g/ha,[1]; 31 g ai/ha,15%
same,pest or weed control at 62 g/ha,[1]; 62 g ai/ha,5%
same,pest or weed control at 125 g/ha,[1]; 125 g ai/ha,25%
same,pest or weed control at 250 g/ha,[1]; 250 g ai/ha,45%
same,pest or weed control at 31 g/ha,[2]; 31 g ai/ha,5%
same,pest or weed control at 62 g/ha,[2]; 62 g ai/ha,5%
same,pest or weed control at 125 g/ha,[2]; 125 g ai/ha,55%
same,pest or weed control at 250 g/ha,[2]; 250 g ai/ha,70%
same,plant injury at 31 g/ha,[3]; 31 g ai/ha,0%
same,plant injury at 62 g/ha,[3]; 62 g ai/ha,0%
same,plant injury at 125 g/ha,[3]; 125 g ai/ha,0%
same,plant injury at 250 g/ha,[3]; 250 g ai/ha,15%
same,pest or weed control at 31 g/ha,[4]; 31 g ai/ha,45%
same,pest or weed control at 62 g/ha,[4]; 62 g ai/ha,60%
same,pest or weed control at 125 g/ha,[4]; 125 g ai/ha,70%
same,pest or weed control at 250 g/ha,[4]; 250 g ai/ha,85%
same,plant injury at 31 g/ha,[5]; 31 g ai/ha,20%
same,plant injury at 62 g/ha,[5]; 62 g ai/ha,35%
same,plant injury at 125 g/ha,[5]; 125 g ai/ha,50%
same,plant injury at 250 g/ha,[5]; 250 g ai/ha,80%
same,pest or weed control at 31 g/ha,[6]; 31 g ai/ha,65%
same,pest or weed control at 62 g/ha,[6]; 62 g ai/ha,90%
same,pest or weed control at 125 g/ha,[6]; 125 g ai/ha,95%
same,pest or weed control at 250 g/ha,[6]; 250 g ai/ha,95%
same,pest or weed control at 31 g/ha,[7]; 31 g ai/ha,75%
same,pest or weed control at 62 g/ha,[7]; 62 g ai/ha,70%
same,pest or weed control at 125 g/ha,[7]; 125 g ai/ha,85%
same,pest or weed control at 250 g/ha,[7]; 250 g ai/ha,95%
same,pest or weed control at 31 g/ha,[8]; 31 g ai/ha,65%
same,pest or weed control at 62 g/ha,[8]; 62 g ai/ha,75%
same,pest or weed control at 125 g/ha,[8]; 125 g ai/ha,90%
same,pest or weed control at 250 g/ha,[8]; 250 g ai/ha,95%
same,pest or weed control at 31 g/ha,[9]; 31 g ai/ha,0%
same,pest or weed control at 62 g/ha,[9]; 62 g ai/ha,0%
same,pest or weed control at 125 g/ha,[9]; 125 g ai/ha,0%
same,pest or weed control at 250 g/ha,[9]; 250 g ai/ha,40%
same,pest or weed control at 31 g/ha,wild oat (Avena fatua); 31 g ai/ha,0%
same,pest or weed control at 62 g/ha,wild oat (Avena fatua); 62 g ai/ha,0%
same,pest or weed control at 125 g/ha,wild oat (Avena fatua); 125 g ai/ha,5%
same,pest or weed control at 250 g/ha,wild oat (Avena fatua); 250 g ai/ha,30%
same,pest or weed control at 31 g/ha,[10]; 31 g ai/ha,50%
same,pest or weed control at 62 g/ha,[10]; 62 g ai/ha,55%
same,pest or weed control at 125 g/ha,[10]; 125 g ai/ha,80%
same,pest or weed control at 250 g/ha,[10]; 250 g ai/ha,95%
same,pest or weed control at 31 g/ha,[11]; 31 g ai/ha,0%
same,pest or weed control at 62 g/ha,[11]; 62 g ai/ha,5%
same,pest or weed control at 125 g/ha,[11]; 125 g ai/ha,5%
same,pest or weed control at 250 g/ha,[11]; 250 g ai/ha,45%
same,pest or weed control at 31 g/ha,[12]; 31 g ai/ha,5%
same,pest or weed control at 62 g/ha,[12]; 62 g ai/ha,5%
same,pest or weed control at 125 g/ha,[12]; 125 g ai/ha,5%
same,pest or weed control at 250 g/ha,[12]; 250 g ai/ha,10%
same,"Corn plant response rating (crop injury, 0 = no effect, 100 = complete kill) at 31 g/ha",corn (Zea mays); 31 g ai/ha,5%
same,"Corn plant response rating (crop injury, 0 = no effect, 100 = complete kill) at 62 g/ha",corn (Zea mays); 62 g ai/ha,5%
same,"Corn plant response rating (crop injury, 0 = no effect, 100 = complete kill) at 125 g/ha",corn (Zea mays); 125 g ai/ha,20%
same,"Corn plant response rating (crop injury, 0 = no effect, 100 = complete kill) at 250 g/ha",corn (Zea mays); 250 g ai/ha,55%
same,pest or weed control at 31 g/ha,[13]; 31 g ai/ha,5%
same,pest or weed control at 62 g/ha,[13]; 62 g ai/ha,10%
same,pest or weed control at 125 g/ha,[13]; 125 g ai/ha,5%
same,pest or weed control at 250 g/ha,[13]; 250 g ai/ha,10%
same,plant injury at 31 g/ha,soybean (Glycine max); 31 g ai/ha,75%
same,plant injury at 62 g/ha,soybean (Glycine max); 62 g ai/ha,85%
same,plant injury at 125 g/ha,soybean (Glycine max); 125 g ai/ha,90%
same,plant injury at 250 g/ha,soybean (Glycine max); 250 g ai/ha,95%
same,pest or weed control at 31 g/ha,[14]; 31 g ai/ha,5%
same,pest or weed control at 62 g/ha,[14]; 62 g ai/ha,10%
same,pest or weed control at 125 g/ha,[14]; 125 g ai/ha,10%
same,pest or weed control at 250 g/ha,[14]; 250 g ai/ha,10%
same,pest or weed control at 31 g/ha,kochia (Kochia scoparia); 31 g ai/ha,30%
same,pest or weed control at 62 g/ha,kochia (Kochia scoparia); 62 g ai/ha,50%
same,pest or weed control at 125 g/ha,kochia (Kochia scoparia); 125 g ai/ha,85%
same,pest or weed control at 250 g/ha,kochia (Kochia scoparia); 250 g ai/ha,95%
same,pest or weed control at 31 g/ha,[15]; 31 g ai/ha,70%
same,pest or weed control at 62 g/ha,[15]; 62 g ai/ha,90%
same,pest or weed control at 125 g/ha,[15]; 125 g ai/ha,95%
same,pest or weed control at 250 g/ha,[15]; 250 g ai/ha,95%
same,plant injury at 31 g/ha,[16]; 31 g ai/ha,100%
same,plant injury at 62 g/ha,[16]; 62 g ai/ha,100%
same,plant injury at 125 g/ha,[16]; 125 g ai/ha,100%
same,plant injury at 250 g/ha,[16]; 250 g ai/ha,100%
same,pest or weed control at 31 g/ha,[17]; 31 g ai/ha,15%
same,pest or weed control at 62 g/ha,[17]; 62 g ai/ha,90%
same,pest or weed control at 125 g/ha,[17]; 125 g ai/ha,95%
same,pest or weed control at 31 g/ha,[18]; 31 g ai/ha,0%
same,pest or weed control at 62 g/ha,[18]; 62 g ai/ha,25%
same,pest or weed control at 125 g/ha,[18]; 125 g ai/ha,25%

# — patent US20170190671A1, “BIS(ARYL)CATECHOL DERIVATIVES AS HERBICIDES” (E I DU PONT DE NEMOURS AND COMPANY, priority 2014, published 2017)
